Converted amounts (≈) assume the structure as drawn. “And” between values parts separate entries of the source, which are not always exact repeats. Equal values may be shown once.
Experiments:
[1] = Solubility limited absorbable dose (SLAD) calculation with predicted human jejunal Peff; conditions: for solubility: FaSSIF
From the text: Predicted Peff values were obtained from a calibration plot of literature Peff values vs measured Caco-2 Papp using either buffer or plasma as the transport medium (see Results section).

[2] = biological target: T1, Albumax medium (lipid rich bovine serum albumin) (Bos taurus, UniProt P02769); experiment: Binding in Albumax medium via ultracentrifugation; type: in vitro ADME; conditions: bovine, isolated protein, pH 7.4
T1 construct: purchased Gibco, Thermo Fisher Scientific
T1 sequence (P02769 25-607): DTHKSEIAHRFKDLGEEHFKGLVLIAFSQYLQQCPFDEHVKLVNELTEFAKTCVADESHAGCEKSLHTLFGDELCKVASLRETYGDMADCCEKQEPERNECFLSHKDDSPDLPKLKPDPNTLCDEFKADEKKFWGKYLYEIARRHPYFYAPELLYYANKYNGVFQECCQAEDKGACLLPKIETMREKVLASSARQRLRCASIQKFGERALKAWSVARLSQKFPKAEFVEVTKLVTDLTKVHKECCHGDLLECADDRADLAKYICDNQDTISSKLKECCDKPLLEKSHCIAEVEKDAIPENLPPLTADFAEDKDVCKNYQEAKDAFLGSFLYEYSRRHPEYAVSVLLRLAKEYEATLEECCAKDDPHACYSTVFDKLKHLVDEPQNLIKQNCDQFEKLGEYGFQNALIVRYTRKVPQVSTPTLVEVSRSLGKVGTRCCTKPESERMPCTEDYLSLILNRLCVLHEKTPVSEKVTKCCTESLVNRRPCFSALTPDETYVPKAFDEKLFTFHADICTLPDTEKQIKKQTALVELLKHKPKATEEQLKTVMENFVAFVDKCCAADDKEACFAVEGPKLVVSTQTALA
Outline: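 Unbound fraction (fu) taken as protein-free supernate concentration over total concentration after ultracentrifuging compound-spiked Albumax at 37 °C (5% or 10% CO2, or air). Analysis used 1:1 mixing with the opposite blank matrix against a common pH 7.4 calibration; degradation judged by start versus end Ctotal.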

[3] = Solubility in biorelevant media; conditions: for solubility at 1 h / solubility: thermodynamic from solid
Outline: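 LC–MS quantification of supernatants, after two centrifugations, in triplicate against calibration standards. Media: FaSSGF sampled at 1 h; FaSSIF-V2, FeSSIF-V2 and pH 7.4 PBS sampled at 5–6 h; all at 37 °C on an orbital mixer at 600 rpm.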

[4] = In vitro metabolism (metabolic stability) in human liver microsomes; conditions: human
Outline: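 Intrinsic clearance (µL/min/mg protein) came from the first-order substrate-depletion rate in human liver microsomes, using only the initial log-linear phase where kinetics deviated. Samples were quenched at 2, 5, 15, 30 and 60 min and quantified by LC–MS. Unbound CLint was obtained by dividing by microsomal fu.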

CYP2C19 = CYP2C19 (Homo sapiens, UniProt P33261); experiment: in vitro; conditions: for inhibition at 20 µM: human, pH 7.4; for inhibition at 20 µM / CYP2C19 % inhibition at max conc: microsomes
Sequence of CYP2C19 (P33261 whole entry, canonical isoform): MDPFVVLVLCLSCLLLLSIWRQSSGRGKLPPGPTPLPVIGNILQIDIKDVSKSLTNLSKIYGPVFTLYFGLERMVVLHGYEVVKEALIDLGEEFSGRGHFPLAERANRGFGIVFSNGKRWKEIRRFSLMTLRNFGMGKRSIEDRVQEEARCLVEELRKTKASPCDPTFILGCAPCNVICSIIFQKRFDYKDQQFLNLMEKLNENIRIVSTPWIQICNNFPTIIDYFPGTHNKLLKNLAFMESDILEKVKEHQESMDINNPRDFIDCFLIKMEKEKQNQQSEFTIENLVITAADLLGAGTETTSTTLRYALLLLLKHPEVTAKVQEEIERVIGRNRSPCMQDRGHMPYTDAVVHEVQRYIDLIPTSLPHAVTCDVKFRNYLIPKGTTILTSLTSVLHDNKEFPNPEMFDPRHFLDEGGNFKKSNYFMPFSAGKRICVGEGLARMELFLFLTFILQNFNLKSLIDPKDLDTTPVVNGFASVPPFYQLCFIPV
Outline: (§1)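 Each compound is incubated with human liver microsomes and a probe substrate whose conversion is mediated by one CYP isoform. Reactions are then quenched with ice-cold acetonitrile, and the metabolite is determined by LC–MS.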

CYP1A2 = biological target: T2, CYP1A2 (Homo sapiens, UniProt P05177); experiment: in vitro; conditions: for CYP1A2 % inhibition at max conc: microsomes
T2 sequence (P05177 1-516): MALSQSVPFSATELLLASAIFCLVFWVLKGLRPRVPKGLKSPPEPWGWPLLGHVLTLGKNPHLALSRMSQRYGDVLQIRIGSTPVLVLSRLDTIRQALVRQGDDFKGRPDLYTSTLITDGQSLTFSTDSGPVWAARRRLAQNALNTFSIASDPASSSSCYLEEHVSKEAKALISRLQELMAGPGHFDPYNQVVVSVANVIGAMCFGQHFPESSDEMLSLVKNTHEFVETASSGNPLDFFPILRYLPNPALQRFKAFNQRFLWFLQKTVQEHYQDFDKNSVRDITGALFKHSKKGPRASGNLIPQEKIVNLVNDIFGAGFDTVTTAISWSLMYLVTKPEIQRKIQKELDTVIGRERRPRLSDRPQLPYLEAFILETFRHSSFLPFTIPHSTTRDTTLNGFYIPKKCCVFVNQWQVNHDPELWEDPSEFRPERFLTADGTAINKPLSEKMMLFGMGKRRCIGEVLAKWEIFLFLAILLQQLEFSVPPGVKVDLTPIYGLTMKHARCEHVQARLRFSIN
Outline: as §1

CYP3A4 = CYP3A4 (Homo sapiens, UniProt P08684); experiment: Cytochrome P450 inhibition in human liver microsomes; conditions: for IC50: highest concentration tested 20 µM; for inhibition at 20 µM: human; for inhibition at 20 µM / CYP3A4 (test) % inhibition at max conc: microsomes
Sequence of CYP3A4 (P08684 whole entry): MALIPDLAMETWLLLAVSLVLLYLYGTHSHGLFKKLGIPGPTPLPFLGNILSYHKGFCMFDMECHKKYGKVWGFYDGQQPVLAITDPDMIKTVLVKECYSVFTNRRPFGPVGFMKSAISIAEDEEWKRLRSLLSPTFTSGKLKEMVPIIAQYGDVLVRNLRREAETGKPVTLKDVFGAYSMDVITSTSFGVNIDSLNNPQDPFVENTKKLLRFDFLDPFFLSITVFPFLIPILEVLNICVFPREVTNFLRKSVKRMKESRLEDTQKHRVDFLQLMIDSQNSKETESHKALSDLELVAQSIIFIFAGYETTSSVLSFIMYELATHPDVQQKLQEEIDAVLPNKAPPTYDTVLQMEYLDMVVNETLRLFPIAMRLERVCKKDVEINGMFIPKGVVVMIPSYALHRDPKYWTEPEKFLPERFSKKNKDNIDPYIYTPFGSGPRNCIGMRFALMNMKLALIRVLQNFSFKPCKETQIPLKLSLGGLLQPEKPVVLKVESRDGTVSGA
Outline: as §1

CYP2C9 = CYP2C9 (Homo sapiens, UniProt P11712); experiment: as above
Sequence of CYP2C9 (P11712 whole entry): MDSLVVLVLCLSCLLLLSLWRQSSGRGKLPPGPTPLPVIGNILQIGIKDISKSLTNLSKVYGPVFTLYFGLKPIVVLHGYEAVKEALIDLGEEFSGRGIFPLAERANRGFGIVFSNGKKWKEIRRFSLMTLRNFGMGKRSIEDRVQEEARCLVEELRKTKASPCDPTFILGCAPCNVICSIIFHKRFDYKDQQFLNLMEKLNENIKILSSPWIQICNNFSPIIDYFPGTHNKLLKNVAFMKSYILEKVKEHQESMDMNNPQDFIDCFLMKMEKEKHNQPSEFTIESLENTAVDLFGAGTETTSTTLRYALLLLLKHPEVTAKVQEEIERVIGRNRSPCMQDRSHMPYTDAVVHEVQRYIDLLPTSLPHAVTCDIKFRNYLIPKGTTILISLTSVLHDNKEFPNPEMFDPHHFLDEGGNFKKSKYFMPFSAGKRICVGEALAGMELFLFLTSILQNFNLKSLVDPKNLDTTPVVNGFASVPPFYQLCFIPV
Outline: as §1

CYP2D6 = CYP2D6 (Homo sapiens, UniProt P10635); experiment: as above; conditions: for inhibition at 20 µM: human, pH 7.4
Sequence of CYP2D6 (P10635 whole entry): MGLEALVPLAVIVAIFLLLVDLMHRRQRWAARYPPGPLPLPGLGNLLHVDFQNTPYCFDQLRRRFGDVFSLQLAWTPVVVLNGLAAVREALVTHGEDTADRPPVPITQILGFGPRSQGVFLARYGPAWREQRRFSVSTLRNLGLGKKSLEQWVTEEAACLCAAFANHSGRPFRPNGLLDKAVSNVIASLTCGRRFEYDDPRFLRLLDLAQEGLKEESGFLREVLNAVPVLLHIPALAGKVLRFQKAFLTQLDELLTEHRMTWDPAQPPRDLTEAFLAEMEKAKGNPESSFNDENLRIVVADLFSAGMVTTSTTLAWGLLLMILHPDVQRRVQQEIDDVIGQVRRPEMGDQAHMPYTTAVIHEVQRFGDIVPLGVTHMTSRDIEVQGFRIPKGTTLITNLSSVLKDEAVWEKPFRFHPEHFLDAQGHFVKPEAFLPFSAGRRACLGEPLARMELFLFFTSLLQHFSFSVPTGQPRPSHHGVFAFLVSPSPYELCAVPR
Outline: as §1

[5] = based on ref 80 and control compounds
[6] = from Caco-2 Papp via calibration plot
[7] = FaSSGF, 37 °C, fassgf or other biorelevant
[8] = phosphate buffered saline pH 7.4, 37 °C, pH 7.4, aqueous buffer
[9] = liver microsomes, pH 7.4, HLM CLint, human liver microsomes, average of n = 2 replicates, < 7 means < 15% loss over 60 min
[10] = CYP3A4 (test) IC50, human liver microsomes, CYP3A4 (test)

| Compound | solubility [1] [µg/mL] | An (absorption number) ([1]; Peff × tres/R, minimum 1) | SLAD ([1]; Ssi × V (500 mL) × Mp) [mg] | Permeability classification [1, 5] | Predicted human Peff [1, 6] | fraction unbound at […], 500 ng/mL [2] | solubility at 1 h [3, 7] | solubility ([3]; FaSSIF-V2, 37 °C, fassif) | solubility ([3]; FeSSIF-V2, 37 °C, fessif) | solubility [3, 8] | microsomal CLint at 1 µM [4, 9] [µL/min/mg] | inhibition at 20 µM (CYP2C19) [%] | CYP1A2 % inhibition at max conc (CYP1A2) | IC50 (CYP3A4; [10]) [µM] | CYP2C9 % inhibition at max conc (CYP2C9; microsomes) | IC50 (CYP2D6) [µM] | inhibition at 20 µM (CYP2D6; microsomes) [%] | IC50 (CYP1A2) [µM] | CYP2C19 % inhibition at max conc (CYP2C19) | CYP3A4 (test) % inhibition at max conc (CYP3A4) | other results |
| --- | --- | --- | --- | --- | --- | --- | --- | --- | --- | --- | --- | --- | --- | --- | --- | --- | --- | --- | --- | --- | --- |
| CC1(C)c2nc(-c3ccc(F)cc3)c(Nc3ccc(F)cc3)n2CCN1C(=O)CN [KAF156] | 1600 (≈ 3890 µM) | 3.5 | 2780 | High (> 85% absorption (high)) | 2.9 10^−4 cm/s | 0.38 ± 0.017 | > 2000 µg/mL and > 4850 µM | 1600 µg/mL and 3880 µM | > 2000 µg/mL and > 4850 µM | 560 µg/mL and 1360 µM | 14.7 | 40 | nmi |  |  |  |  |  |  |  | solubility ([3]; FaSSGF, FaSSIF-V2, FeSSIF-V2 and PBS pH 7.4, 37 °C, pH 7.4, aqueous buffer): 400 to 500 µg/mL |
| Cc1nc(Nc2ncc(N3CCN(C)[C@H](C)C3)c(Nc3cc(C)n(C)n3)n2)cc(C2CC2)c1F [MMV253] | 569 (≈ 1220 µM) | 8.1 | 2300 | High (> 85% absorption (high)) | 6.8 10^−4 cm/s | 0.48 ± 0.026 | > 2000 µg/mL and > 4300 µM | 569 µg/mL and 1220 µM | > 2000 µg/mL and > 4300 µM | 19 µg/mL and 40.8 µM | 13.2 |  | nmi | > 20 | nmi | > 20 | 35 | > 20 |  |  | inhibition at 20 µM (CYP3A4; pH 7.4, CYP3A4 (test) % inhibition at max conc): 37%; IC50 (CYP2C9): > 20 µM |
| Clc1ccc2c(N3CCN(CCCN4CCN(c5ccnc6cc(Cl)ccc56)CC4)CC3)ccnc2c1 [Piperaquine] | 103 (≈ 192 µM) | 13 | 685 | High (> 85% absorption (high)) | 11 10^−4 cm/s | 0.019 ± 0.004 | > 2000 µg/mL and > 3700 µM | 103 µg/mL and 192 µM | 60.7 µg/mL and 113 µM | < 0.5 µg/mL and < 0.9 µM | 20.1 |  | nmi | > 20 |  | > 20 |  | > 20 | nmi | nmi | IC50 (CYP2C19): > 20 µM; IC50 (CYP3A4; CYP3A4 (midaz) IC50, human liver microsomes, CYP3A4 (midaz)): 4.5 µM; Ki (CYP3A4; CYP3A4 (midaz) Ki, human liver microsomes, CYP3A4 (midaz)): 3.2 µM; CYP2D6 % inhibition at max conc (CYP2D6; microsomes): nmi |
| COc1cc(NC(C)CCCN)c2ncccc2c1 (stereo not drawn) [Primaquine] | > 2000 |  |  |  |  | 0.96 ± 0.056 |  |  |  |  |  | 34 |  |  |  |  | 33 |  |  | nmi | Permeability classification [1]: High (key: High: > 85% absorption (high); Intermediate: 50–84% absorption (intermediate); Low: < 50% absorption (low)); An (absorption number) ([1]; human): 3.6; Predicted human Peff ([1]; human): 3.0 10^−4 cm/s; SLAD ([1]; human): > 3560 mg; FaSSGF solubility [3]: > 2000 µg/mL; FaSSIF solubility [3]: > 2000 µg/mL; FeSSIF solubility [3]: > 2000 µg/mL; solubility ([3]; 37 °C, fassgf or other biorelevant): > 2000 µg/mL and > 7700 µM; solubility ([3]; 37 °C, fassif): > 2000 µg/mL and > 7700 µM; solubility ([3]; 37 °C, fessif): > 2000 µg/mL and > 7700 µM; solubility ([3]; 37 °C, pH 7.4, aqueous buffer): > 7.7 mM; Solubility PBS7.4 (5–6 h) ([3]; pH 7.4): > 2000/> 7700 µg/mL; microsomal CLint at 1 µM ([4]; microsomes, pH 7.4): 7.7 µL/min/mg; inhibition at 20 µM (CYP3A4; pH 7.4, CYP3A4 (midaz) % inhibition at max conc): 31%; inhibition at 20 µM (CYP2C9; human, microsomes, pH 7.4): 20% |
| CCc1nc(N)nc(N)c1-c1ccc(Cl)cc1 [Pyrimethamine] |  | 5.9 | 326 | High (> 85% absorption (high)) | 4.9 10^−4 cm/s | 0.46 ± 0.09 | > 2000 µg/mL and > 8000 µM | 111 µg/mL and 446 µM | 120 µg/mL and 483 µM | 43 µg/mL and 175 µM | < 7 |  | nmi |  | nmi | > 20 | 36 | > 20 | nmi |  |  |

Source: publication PMC6941357, “An in vitro toolbox to accelerate anti-malarial drug discovery and development” (Malaria Journal, 2020)
